Experimental data from PubChem BioAssay (NCI).
Several values for one entry are separate records, joined by “and”; a condition that tells them apart may be missing. Identical values can stand only once.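 1) Cells in 96-well plates. 2) Compound, 48 h, 5 concentrations. 3) Linear interpolation between surrounding doses. 4) Unreached endpoint = highest concentration. GI50 = concentration required for 50% inhibition of growth. TGI: concentration producing complete growth inhibition.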

How the values were obtained:
Test in all cases: NCI anticancer screen, dose series, 48 h
K-562 leukemia = tested on: K-562 leukemia
RPMI-8226 leukemia = tested on: RPMI-8226 leukemia
OVCAR-5 ovarian = tested on: OVCAR-5 ovarian
NCI-H23 lung = tested on: NCI-H23 lung
HCT-15 colon = tested on: HCT-15 colon
HS 578T breast = tested on: HS 578T breast
MALME-3M melanoma = tested on: MALME-3M melanoma
NCI-H460 lung = tested on: NCI-H460 lung
UACC-257 melanoma = tested on: UACC-257 melanoma
SK-MEL-28 melanoma = tested on: SK-MEL-28 melanoma

In the case of `C=CCNC(=S)Nc1sc2c(c1C(=O)OCC)CC(C)CC2` (stereo not given), the TGI (K-562 leukemia) is reported as > 100 µM, the TGI (RPMI-8226 leukemia) is reported as 68.6 µM and the TGI (OVCAR-5 ovarian) is reported as 76 µM. The TGI (NCI-H23 lung) was > 100 µM, the TGI (HCT-15 colon) was > 100 µM and the TGI (HS 578T breast) was > 100 µM. For the same compound, the TGI (MALME-3M melanoma) was 45.8 µM, the TGI (NCI-H460 lung) was 47.7 µM and the TGI (UACC-257 melanoma) was 43.5 µM. The TGI (SK-MEL-28 melanoma) was > 100 µM.
`O=S(=O)(c1ccc(Br)cc1)n1c2ccc(Br)cc2c2nc3ccccc3nc21` was tested, and the TGI (K-562 leukemia) was > 100 µM, the TGI (RPMI-8226 leukemia) was > 100 µM and the TGI (OVCAR-5 ovarian) was > 100 µM. For the same compound, the TGI (NCI-H23 lung) was > 100 µM, the TGI (HCT-15 colon) was > 100 µM and the TGI (HS 578T breast) was > 100 µM. For the same compound, the TGI (MALME-3M melanoma) was > 100 µM, the TGI (NCI-H460 lung) was > 100 µM and the TGI (UACC-257 melanoma) was > 100 µM. For the same compound, the TGI (SK-MEL-28 melanoma) was > 100 µM.
`COc1cc(/C=C2/SC(c3ccccc3)N(c3ccc(NC(C)=O)cc3)C2=O)cc(OC)c1OC` (stereo not given) was tested, and the TGI (K-562 leukemia) was > 100 µM, the TGI (RPMI-8226 leukemia) was > 100 µM and the TGI (OVCAR-5 ovarian) was > 100 µM. For the same compound, the TGI (NCI-H23 lung) was > 100 µM, the TGI (HCT-15 colon) was > 100 µM and the TGI (HS 578T breast) was > 100 µM. The TGI (MALME-3M melanoma) was > 100 µM, the TGI (NCI-H460 lung) was > 100 µM and the TGI (UACC-257 melanoma) was > 100 µM. For the same compound, the TGI (SK-MEL-28 melanoma) was > 100 µM.
In the case of `COc1c2cc([N+](=O)[O-])cc1CNC(=O)CN1CCOCCOCCN(CCOCCOCC1)CC(=O)NC2`, the TGI (K-562 leukemia) is reported as > 100 µM, the TGI (RPMI-8226 leukemia) is reported as > 100 µM and the TGI (OVCAR-5 ovarian) is reported as > 100 µM. For the same compound, the TGI (NCI-H23 lung) was > 100 µM, the TGI (HCT-15 colon) was > 100 µM and the TGI (HS 578T breast) was > 100 µM. For the same compound, the TGI (MALME-3M melanoma) was > 100 µM, the TGI (NCI-H460 lung) was > 100 µM and the TGI (UACC-257 melanoma) was > 100 µM. For the same compound, the TGI (SK-MEL-28 melanoma) was > 100 µM.
`c1ccc(C2=NC3(CCCCC3)N(c3nc4ccccc4s3)N2)nc1` was tested, and the TGI (K-562 leukemia) was > 100 µM, the TGI (RPMI-8226 leukemia) was 52.8 µM and the TGI (OVCAR-5 ovarian) was > 100 µM. The TGI (NCI-H23 lung) was 84.8 µM, the TGI (HCT-15 colon) was > 100 µM and the TGI (HS 578T breast) was > 100 µM. For the same compound, the TGI (MALME-3M melanoma) was > 100 µM, the TGI (NCI-H460 lung) was 32 µM and the TGI (UACC-257 melanoma) was 43.4 µM. The TGI (SK-MEL-28 melanoma) was > 100 µM.
In the case of `CN(C)CCNc1ccc(C(=O)NCCCN(C)CCCNC(=O)c2ccc(NCCN(C)C)c3c(=O)c4ccccc4[nH]c23)c2[nH]c3ccccc3c(=O)c12`, the TGI (K-562 leukemia) is reported as 5.27 µM, the TGI (RPMI-8226 leukemia) is reported as 0.229 µM and the TGI (OVCAR-5 ovarian) is reported as 1.1 µM. For the same compound, the TGI (NCI-H23 lung) was 2.78 µM, the TGI (HCT-15 colon) was 38.5 µM and the TGI (HS 578T breast) was 1.75 µM. It also gave a TGI (MALME-3M melanoma) of 0.844 µM, a TGI (NCI-H460 lung) of 1.43 µM and a TGI (UACC-257 melanoma) of 3.25 µM. It also gave a TGI (SK-MEL-28 melanoma) of 0.604 µM.
`COC(=O)c1c2c(cc3c1CC1(Cc4ccccc4C1=O)C3)CCC2` (stereo not given) was tested, and the TGI (K-562 leukemia) was > 100 µM, the TGI (RPMI-8226 leukemia) was 99.8 µM and the TGI (OVCAR-5 ovarian) was > 100 µM. For the same compound, the TGI (NCI-H23 lung) was > 100 µM, the TGI (HCT-15 colon) was > 100 µM and the TGI (HS 578T breast) was > 100 µM. For the same compound, the TGI (MALME-3M melanoma) was 79.9 µM, the TGI (NCI-H460 lung) was > 100 µM and the TGI (UACC-257 melanoma) was > 100 µM. For the same compound, the TGI (SK-MEL-28 melanoma) was > 100 µM.
For `CCOC(=O)c1cnc(-n2[nH]c(C)c(CCO)c2=O)[nH]c1=O`, the TGI (K-562 leukemia) was > 100 µM, the TGI (RPMI-8226 leukemia) was > 100 µM and the TGI (OVCAR-5 ovarian) was > 100 µM. The TGI (NCI-H23 lung) was > 100 µM, the TGI (HCT-15 colon) was > 100 µM and the TGI (HS 578T breast) was > 100 µM. The TGI (MALME-3M melanoma) was > 100 µM, the TGI (NCI-H460 lung) was > 100 µM and the TGI (UACC-257 melanoma) was > 100 µM. The TGI (SK-MEL-28 melanoma) was > 100 µM.
With `O=C1CSC2(CC(/C=C/c3ccccc3)=NN2c2cccc(S(=O)(=O)O)c2)N1c1nc2ccccc2s1` (stereo not given) the TGI (K-562 leukemia) was > 100 µM, the TGI (RPMI-8226 leukemia) was 53.7 µM and the TGI (OVCAR-5 ovarian) was 56.5 µM. For the same compound, the TGI (NCI-H23 lung) was 56.7 µM, the TGI (HCT-15 colon) was > 100 µM and the TGI (HS 578T breast) was > 100 µM. The TGI (MALME-3M melanoma) was > 100 µM, the TGI (NCI-H460 lung) was > 100 µM and the TGI (UACC-257 melanoma) was > 100 µM. The TGI (SK-MEL-28 melanoma) was > 100 µM.
For `Cc1ccc(C)n1-c1ccccc1C1SCCCS1`, the TGI (K-562 leukemia) was > 100 µM, the TGI (RPMI-8226 leukemia) was > 100 µM and the TGI (OVCAR-5 ovarian) was > 100 µM. The TGI (NCI-H23 lung) was > 100 µM, the TGI (HCT-15 colon) was > 100 µM and the TGI (HS 578T breast) was > 100 µM. The TGI (MALME-3M melanoma) was > 100 µM, the TGI (NCI-H460 lung) was > 100 µM and the TGI (UACC-257 melanoma) was > 100 µM. The TGI (SK-MEL-28 melanoma) was > 100 µM.
In the case of `CN1C/C(=C\c2cccs2)C2=NC(=S)NC(c3cccs3)C2C1` (stereo not given), the TGI (K-562 leukemia) is reported as > 100 µM, the TGI (RPMI-8226 leukemia) is reported as > 100 µM and the TGI (OVCAR-5 ovarian) is reported as > 100 µM. For the same compound, the TGI (NCI-H23 lung) was > 100 µM, the TGI (HCT-15 colon) was > 100 µM and the TGI (HS 578T breast) was > 100 µM. For the same compound, the TGI (MALME-3M melanoma) was > 100 µM, the TGI (NCI-H460 lung) was > 100 µM and the TGI (UACC-257 melanoma) was > 100 µM. For the same compound, the TGI (SK-MEL-28 melanoma) was > 100 µM.
`c1ccc(CNC2CC(NCc3ccccn3)CC(NCc3ccccn3)C2)nc1` (stereo not given) was tested, and the GI50 (K-562 leukemia) was 3.45 µM and 12.4 µM and 3.71 µM, the TGI (K-562 leukemia) was 34.6 µM and 25 µM and 28.3 µM and the GI50 (RPMI-8226 leukemia) was 2.96 µM and 6.93 µM and 3.51 µM. For the same compound, the TGI (RPMI-8226 leukemia) was 9.64 µM and 25 µM and 13.5 µM, the GI50 (OVCAR-5 ovarian) was 3.66 µM and 14.4 µM and 2.89 µM and the TGI (OVCAR-5 ovarian) was 14.4 µM and 25 µM and 8.94 µM. The GI50 (NCI-H23 lung) was 2.7 µM and 6.69 µM and 1.99 µM, the TGI (NCI-H23 lung) was 7.38 µM and 23.4 µM and 3.89 µM and the TGI (HCT-15 colon) was > 75.2 µM and 25 µM and > 100 µM. The TGI (HS 578T breast) was 53.3 µM and 25 µM and 85.5 µM, the TGI (MALME-3M melanoma) was 10.4 µM and 8.6 µM and 15.8 µM and the TGI (NCI-H460 lung) was 7.07 µM and 12 µM. The TGI (UACC-257 melanoma) was 21.4 µM and 9.81 µM, the GI50 (SK-MEL-28 melanoma) was 7.71 µM and the TGI (SK-MEL-28 melanoma) was 18.5 µM and 13.3 µM and 26.4 µM.
`O=C(CSCC(=O)N/N=C/c1cc(I)cc(I)c1O)N/N=C/c1cc(I)cc(I)c1O` was tested, and the TGI (K-562 leukemia) was 37.7 µM, the TGI (RPMI-8226 leukemia) was 61.5 µM and the TGI (OVCAR-5 ovarian) was 82.5 µM. For the same compound, the TGI (NCI-H23 lung) was 25.3 µM, the TGI (HCT-15 colon) was > 100 µM and the TGI (HS 578T breast) was 39 µM. The TGI (MALME-3M melanoma) was 44.3 µM, the TGI (NCI-H460 lung) was 82 µM and the TGI (UACC-257 melanoma) was > 100 µM. The TGI (SK-MEL-28 melanoma) was > 100 µM.
`C=C(C)[C@@]1(O)O[C@H]2C[C@@]3(C)OC(=CC3=O)/C(C)=C\[C@@H]3OC(=O)[C@@]1(C)[C@H]32` was tested, and the TGI (K-562 leukemia) was 35.4 µM, the TGI (RPMI-8226 leukemia) was > 58.1 µM and the TGI (OVCAR-5 ovarian) was 19.7 µM. For the same compound, the TGI (NCI-H23 lung) was > 31.6 µM, the TGI (HCT-15 colon) was 44 µM and the TGI (HS 578T breast) was > 100 µM. For the same compound, the TGI (MALME-3M melanoma) was > 100 µM, the TGI (NCI-H460 lung) was > 76.8 µM and the TGI (UACC-257 melanoma) was > 63.5 µM. The TGI (SK-MEL-28 melanoma) was 30.4 µM.
With `O=C1c2c(F)c(F)c(F)c(F)c2SC2=NCCN12` the TGI (K-562 leukemia) was > 22.5 µM, the TGI (RPMI-8226 leukemia) was 24.8 µM and the TGI (OVCAR-5 ovarian) was 29.2 µM. For the same compound, the TGI (NCI-H23 lung) was 10.4 µM, the TGI (HCT-15 colon) was 7.56 µM and the TGI (HS 578T breast) was 46.4 µM. The TGI (MALME-3M melanoma) was 12.8 µM, the TGI (NCI-H460 lung) was 17.5 µM and the TGI (UACC-257 melanoma) was 21.8 µM. For the same compound, the TGI (SK-MEL-28 melanoma) was 22.8 µM.
